Laboratory results reported in patent publication US5654451A, “Amino acids and peptides having modified C-terminals and modified N-terminals” (Magainin Pharmaceuticals Inc., priority 1995, dated 1997).
In brackets after ≈: the same amount, converted by molar mass.

Tests used:
Experiment in all cases: Antimicrobial assay (MIC, microtiter broth dilution)
Format in all cases: cell-based
P. mirabilis = settings: for MIC P. mirabilis 23147: strain 23147; for MIC P. mirabilis 24231: strain 24231
E. floccosum = settings: strain 52062
E. coli = settings: for MIC E. coli: Table I, E. coli ATCC 25922; for MIC E. coli 25922: strain 25922 (Tables II-V)
Experimental: (§1) The procedure for the antimicrobial assay is based upon the guidelines of the National Committee for Clinical Laboratory Standards, Document M7-T2, Volume 8, No. 8, 1988.
(§2) 1-5×10^5 CFUs/ml of either S. aureus ATCC 25923, E. coli ATCC 25922, P. aeruginosa ATCC 27853, or C. albicans were added to the wells in full strength Mueller Hinton broth (BBL 11443) from a mid-log culture. The inoculum is standardized spectrophotometrically at 600 nm and is verified by colony counts. The plates are incubated for 16-20 hours at 37° C., and the minimal inhibitory concentrations (MIC) for the compounds are determined. Minimal inhibitory concentration is defined as the lowest concentration of amino acid or peptide which produces a clear well in the microtiter plate.

S. aureus = settings: for MIC S. aureus: Table I, S. aureus ATCC 25923
Experimental: as §1, §2

C. albicans = settings: for MIC C. albicans: Table I; for MIC C. albicans 14053: strain 14053
Experimental: as §1, §2

P. aeruginosa = settings: for MIC P aeruginosa: Table I, P. aeruginosa ATCC 27853; for MIC P. aeruginosa 27853: strain 27853 (Tables II-V)
Experimental: as §1, §2

T. mentagrophytes = settings: strain 18748
S. marcescens = settings: for MIC S. marcescens 18963: strain 18963; for MIC S. marcescens 23420: strain 23420
C. tropicalis = settings: for MIC C. tropicalis 13803: strain 13803; for MIC C. tropicalis 28707: strain 28707
E. faecalis = settings: for MIC E. faecalis 23296: strain 23296; for MIC E. faecalis 29212: strain 29212
E. faecium = settings: strain 26143
C. parapsilosis = settings: for MIC C. parapsilosis 10232: strain 10232; for MIC C. parapsilosis 22109: strain 22109
C. kefyr = settings: strain 28838
P. gingivalis = test system: P. gingivalis
M. canis = settings: strain 11621
T. rubrum = settings: strain 36262
L. fermentum = settings: strain 23271
S. epidermidis = test system: S. epidermidis
B. fragilis = settings: strain 25285
C. difficile = test system: C. difficile

| Structure (SMILES) | MIC P. mirabilis 23147 (P. mirabilis) [µg/mL] | MIC P. mirabilis 24231 (P. mirabilis) [µg/mL] | MIC E. floccosum 52062 (E. floccosum) [µg/mL] | MIC E. coli (E. coli) [µg/mL] | MIC E. coli 25922 (E. coli) | MIC S. aureus (S. aureus) [µg/mL] | MIC C. albicans (C. albicans) [µg/mL] | MIC C. albicans 14053 (C. albicans) | MIC P aeruginosa (P. aeruginosa) [µg/mL] | MIC P. aeruginosa 27853 (P. aeruginosa) | MIC T. mentagrophytes 18748 (T. mentagrophytes) [µg/mL] | MIC S. marcescens 18963 (S. marcescens) [µg/mL] | MIC S. marcescens 23420 (S. marcescens) [µg/mL] | MIC C. tropicalis 13803 (C. tropicalis) [µg/mL] | MIC C. tropicalis 28707 (C. tropicalis) [µg/mL] | MIC E. faecalis 23296 (E. faecalis) | MIC E. faecalis 29212 (E. faecalis) | MIC E. faecium 26143 (E. faecium) [µg/mL] | MIC C. parapsilosis 10232 (C. parapsilosis) | MIC C. parapsilosis 22109 (C. parapsilosis) [µg/mL] | other results |
| --- | --- | --- | --- | --- | --- | --- | --- | --- | --- | --- | --- | --- | --- | --- | --- | --- | --- | --- | --- | --- | --- |
| NC(N)=NC(Cc1ccccc1)C(=O)NCCCCCCCCCCCCNC(=O)C(Cc1ccccc1)N=C(N)N (stereo not drawn) [Compound 3, 1,12-[bis-N-α-amidino-phenylalanyl]diaminododecane] | > 256 | > 256 | 16 (≈ 27.6 µM) | 4 (≈ 6.91 µM) | 4 µg/mL (≈ 6.91 µM) | 1 (≈ 1.73 µM) | 4 (≈ 6.91 µM) | 4 µg/mL (≈ 6.91 µM) | 8 (≈ 13.8 µM) | 4,32 μg/ml | 16 (≈ 27.6 µM) | 64 (≈ 111 µM) | > 256 | 2 (≈ 3.46 µM) | 0.5 (≈ 0.864 µM) | 1,2 μg/ml | 1,2 μg/ml | 2 (≈ 3.46 µM) | 2 µg/mL (≈ 3.46 µM) | 2 (≈ 3.46 µM) | MIC S. aureus 29213 (S. aureus; strain 29213 (Tables II-V)): 1 µg/mL (≈ 1.73 µM); MIC E. faecalis 19052 (E. faecalis; strain 19052): 1,2 μg/ml; MIC E. faecalis 19290 (E. faecalis; strain 19290): 1,2 μg/ml; MIC C. kefyr 28838 (C. kefyr): 2 µg/mL (≈ 3.46 µM); MIC P. gingivalis 9-14K-1 (P. gingivalis; strain 9-14K-1): 4 µg/mL (≈ 6.91 µM); MIC P. gingivalis 381 (P. gingivalis; strain 381): 4 µg/mL (≈ 6.91 µM); MIC P. gingivalis A7A1-28 (P. gingivalis; strain A7A1-28): 4 µg/mL (≈ 6.91 µM); MIC P. gingivalis FAY-19M-1 (P. gingivalis; strain FAY-19M-1): 4 µg/mL (≈ 6.91 µM); MIC P. gingivalis W50 (P. gingivalis; strain W50): 4 µg/mL (≈ 6.91 µM); MIC M. canis 11621 (M. canis): 32 µg/mL (≈ 55.3 µM); MIC T. rubrum 36262 (T. rubrum): 16 µg/mL (≈ 27.6 µM) |
| N=C(N)NC(Cc1ccc(F)cc1)C(=O)NCCCCCCCCCCCCNC(=O)C(Cc1ccc(F)cc1)NC(=N)N (stereo not drawn) [Compound 11, 1,12-[bis-N-α-amidino-p-fluoro-phenylalanyl]diaminododecane] | > 256 | 7256 (≈ 11800 µM) | 4 (≈ 6.51 µM) | 4 (≈ 6.51 µM) | 2,16 μg/ml | 2 (≈ 3.25 µM) | 16 (≈ 26 µM) | 2,64 μg/ml | 8 (≈ 13 µM) | 8,16 μg/ml | 4 (≈ 6.51 µM) | 16 (≈ 26 µM) | > 256 | 2 (≈ 3.25 µM) | 0.5 (≈ 0.813 µM) | 1 µg/mL (≈ 1.63 µM) | 1 µg/mL (≈ 1.63 µM) | 1 (≈ 1.63 µM) | 1,2 μg/ml | 1 (≈ 1.63 µM) | MIC S. aureus 1093 (S. aureus; strain 1093): 2 µg/mL (≈ 3.25 µM); MIC S. aureus 1096 (S. aureus; strain 1096): 2 µg/mL (≈ 3.25 µM); MIC P. aeruginosa 1133 (P. aeruginosa; strain 1133): 32 µg/mL (≈ 52.1 µM); MIC P. aeruginosa El Salvador (P. aeruginosa; strain El Salvador): 128 µg/mL (≈ 208 µM); MIC L. fermentum 23271 (L. fermentum): 1 µg/mL (≈ 1.63 µM); MIC S. epidermidis 1050 (S. epidermidis; strain 1050): 1 µg/mL (≈ 1.63 µM); MIC S. epidermidis 1090 (S. epidermidis; strain 1090): 2 µg/mL (≈ 3.25 µM); MIC B. fragilis 25285 (B. fragilis): 2 µg/mL (≈ 3.25 µM); MIC C. difficile P324 (C. difficile; strain P324): 2 µg/mL (≈ 3.25 µM); MIC C. difficile TTU614 (C. difficile; strain TTU614): 4 µg/mL (≈ 6.51 µM); MIC C. kefyr 28838 (C. kefyr): 1 µg/mL (≈ 1.63 µM); MIC M. canis 11621 (M. canis): 4 µg/mL (≈ 6.51 µM); MIC T. rubrum 36262 (T. rubrum): 8 µg/mL (≈ 13 µM) |
